Experimental data reported in PubChem BioAssay AID1963849 (Molecular Pharmacology Branch, DTP, NCI, 2024).

Test system: 299254-011-R-J1-PDC complex spheroid viability
Experiment: Anticancer human tumor 299254-011-R-J1-PDC patient-derived melanoma cell line growth inhibition [POLQ]
Conditions: for IC50: curve of first compound; for viability, T/C: stronger effect = lower value; active means viability on the fitted dose curve at most 10% of control; inactive means the rest
Outline: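 PDC + HUVEC + MSC complex spheroids; POLQ inhibitors ± partner drugs; top conc. at/near clinical Cmax, else 10 microM (SN-38 1 microM), half-log dilutions; 37 degrees C, 5% CO2.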

[1] = second compound 0.0316 µM, first compound 0.0316 µM
[2] = second compound 0.0316 µM, first compound 0.1 µM
[3] = second compound 0.0316 µM, first compound 0.316 µM
[4] = second compound 0.0316 µM, first compound 1 µM
[5] = second compound 0.1 µM, first compound 0.0316 µM
[6] = second compound 0.1 µM, first compound 0.1 µM
[7] = second compound 0.1 µM, first compound 0.316 µM
[8] = second compound 0.1 µM, first compound 1 µM
[9] = second compound 0.316 µM, first compound 0.0316 µM
[10] = second compound 0.316 µM, first compound 0.1 µM
[11] = second compound 0.316 µM, first compound 0.316 µM
[12] = second compound 0.316 µM, first compound 1 µM
[13] = second compound 1 µM, first compound 0.0316 µM
[14] = second compound 1 µM, first compound 0.1 µM
[15] = second compound 1 µM, first compound 0.316 µM
[16] = second compound 1 µM, first compound 1 µM
[17] = second compound 3.16 µM, first compound 0.0316 µM
[18] = second compound 3.16 µM, first compound 0.1 µM
[19] = second compound 3.16 µM, first compound 0.316 µM
[20] = second compound 3.16 µM, first compound 1 µM
[21] = second compound 10 µM, first compound 0.0316 µM
[22] = second compound 10 µM, first compound 0.1 µM
[23] = second compound 10 µM, first compound 0.316 µM
[24] = second compound 10 µM, first compound 1 µM
[25] = second compound 0.0316 µM, first compound 3.16 µM
[26] = second compound 0.0316 µM, first compound 10 µM
[27] = second compound 0.1 µM, first compound 3.16 µM
[28] = second compound 0.1 µM, first compound 10 µM
[29] = second compound 0.316 µM, first compound 3.16 µM
[30] = second compound 0.316 µM, first compound 10 µM
[31] = second compound 1 µM, first compound 3.16 µM
[32] = second compound 1 µM, first compound 10 µM
[33] = second compound 3.16 µM, first compound 3.16 µM
[34] = second compound 3.16 µM, first compound 10 µM
[35] = second compound 10 µM, first compound 3.16 µM
[36] = second compound 10 µM, first compound 10 µM
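Further: spheroids exposed to drugs for one week before measurement.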
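Wherever viability, T/C is given: percent viability relative to DMSO vehicle control taken as 100%.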

C=CCn1c(=O)c2cnc(Nc3ccc(N4CCN(C)CC4)cc3)nc2n1-c1cccc(C(C)(C)O)n1 + COC1C(OC(N)=O)C(O)C(Oc2ccc3c(O)c(NC(=O)c4ccc(O)c(CC=C(C)C)c4)c(=O)oc3c2C)OC1(C)C
> 1000 nM: IC50 (second compound 0.0316 µM) | IC50 (second compound 0.1 µM) | IC50 (second compound 0.316 µM) | IC50 (second compound 1 µM) | IC50 (second compound 3.16 µM) | IC50 (second compound 10 µM)
inactive: viability, T/C (second compound 0.0316 µM, first compound 0.00316 µM) 89.1% | viability, T/C (second compound 0.0316 µM, first compound 0.01 µM) 99.6% | viability, T/C [1] 99.6% | viability, T/C [2] 112% | viability, T/C [3] 95.1% | viability, T/C [4] 74.4% | viability, T/C (second compound 0.1 µM, first compound 0.00316 µM) 116% | viability, T/C (second compound 0.1 µM, first compound 0.01 µM) 97.7% | viability, T/C [5] 127% | viability, T/C [6] 122% | viability, T/C [7] 87.5% | viability, T/C [8] 64.5% | viability, T/C (second compound 0.316 µM, first compound 0.00316 µM) 105% | viability, T/C (second compound 0.316 µM, first compound 0.01 µM) 99% | viability, T/C [9] 101% | viability, T/C [10] 98.6% | viability, T/C [11] 115% | viability, T/C [12] 60.5% | viability, T/C (second compound 1 µM, first compound 0.00316 µM) 111% | viability, T/C (second compound 1 µM, first compound 0.01 µM) 96.2% | viability, T/C [13] 96.4% | viability, T/C [14] 102% | viability, T/C [15] 97.9% | viability, T/C [16] 78.2% | viability, T/C (second compound 3.16 µM, first compound 0.00316 µM) 112% | viability, T/C (second compound 3.16 µM, first compound 0.01 µM) 103% | viability, T/C [17] 94.9% | viability, T/C [18] 107% | viability, T/C [19] 95.3% | viability, T/C [20] 69.6% | viability, T/C (second compound 10 µM, first compound 0.00316 µM) 104% | viability, T/C (second compound 10 µM, first compound 0.01 µM) 121% | viability, T/C [21] 115% | viability, T/C [22] 119% | viability, T/C [23] 95.2% | viability, T/C [24] 68.9%

CC1COCCN1c1cc(C2(O)CC3CCC(C2)O3)c2cnn(-c3ccn[nH]3)c2n1 (stereo unspecified) + Nc1ccc(C#CCN(C(=O)Cc2ncc(C(F)(F)F)cc2C(F)(F)F)c2ccc(F)cc2)nn1
168 nM: IC50 (second compound 0.0316 µM)
138 nM: IC50 (second compound 1 µM)
inactive: viability, T/C [1] 90.4% | viability, T/C [2] 61.6% | viability, T/C [3] 34.3% | viability, T/C [4] 27.1% | viability, T/C [25] 15.7% | viability, T/C [26] 11.1% | viability, T/C [5] 87.4% | viability, T/C [6] 55.3% | viability, T/C [7] 42.5% | viability, T/C [8] 29.8% | viability, T/C [27] 15.6% | viability, T/C [28] 13.2% | viability, T/C [9] 80.6% | viability, T/C [10] 49.6% | viability, T/C [11] 39.5% | viability, T/C [12] 26.6% | viability, T/C [29] 18.5% | viability, T/C [30] 11.5% | viability, T/C [13] 91% | viability, T/C [14] 55.7% | viability, T/C [15] 35.2% | viability, T/C [16] 21.5% | viability, T/C [31] 16.5% | viability, T/C [32] 12.9% | viability, T/C [17] 79.1% | viability, T/C [18] 49.5% | viability, T/C [19] 31.8% | viability, T/C [20] 23.1% | viability, T/C [33] 18.9% | viability, T/C [34] 14% | viability, T/C [21] 73.8% | viability, T/C [22] 48% | viability, T/C [23] 35.8% | viability, T/C [24] 22.1% | viability, T/C [35] 18.4% | viability, T/C [36] 15.5%
98.2 nM: IC50 (second compound 3.16 µM)
97.1 nM: IC50 (second compound 10 µM)
130 nM: IC50 (second compound 0.316 µM)
173 nM: IC50 (second compound 0.1 µM)

CCc1cc2c(N3CCc4c(cc(Cn5ccnc5)cc4-c4cn(C)nc4C(F)(F)F)C3=O)ccnc2c(OC)n1 + COC1C(OC(N)=O)C(O)C(Oc2ccc3c(O)c(NC(=O)c4ccc(O)c(CC=C(C)C)c4)c(=O)oc3c2C)OC1(C)C
inactive: viability, T/C [1] 115% | viability, T/C [2] 104% | viability, T/C [3] 111% | viability, T/C [4] 116% | viability, T/C [25] 107% | viability, T/C [26] 82.2% | viability, T/C [5] 110% | viability, T/C [6] 105% | viability, T/C [7] 101% | viability, T/C [8] 85.2% | viability, T/C [27] 92.2% | viability, T/C [28] 71.3% | viability, T/C [9] 93% | viability, T/C [10] 121% | viability, T/C [11] 101% | viability, T/C [12] 95.8% | viability, T/C [29] 101% | viability, T/C [30] 91.4% | viability, T/C [13] 107% | viability, T/C [14] 110% | viability, T/C [15] 106% | viability, T/C [16] 106% | viability, T/C [31] 113% | viability, T/C [32] 84.7% | viability, T/C [17] 99.3% | viability, T/C [18] 101% | viability, T/C [19] 116% | viability, T/C [20] 114% | viability, T/C [33] 92.9% | viability, T/C [34] 80% | viability, T/C [21] 120% | viability, T/C [22] 99.2% | viability, T/C [23] 111% | viability, T/C [24] 118% | viability, T/C [35] 97.5% | viability, T/C [36] 81.4%
> 10000 nM: IC50 (second compound 0.0316 µM) | IC50 (second compound 0.1 µM) | IC50 (second compound 0.316 µM) | IC50 (second compound 1 µM) | IC50 (second compound 3.16 µM) | IC50 (second compound 10 µM)
